Here are results for 19 compounds from ChEMBL document CHEMBL1909046, “DrugMatrix in vitro pharmacology data”.

One experiment concerns the target Cannabinoid receptor 1 (Homo sapiens, UniProt P21554). Type of experiment: cell membranes, Chem-1, Membrane. The conditions noted are these: chem-1. Note: in other assays of this panel Not Active means under 50% inhibition at 10 µM.
In experiment [1] the target is Kappa-type opioid receptor (Homo sapiens, UniProt P41145). The experiment in a line: DRUGMATRIX: Opiate kappa (OP2, KOP) radioligand binding (ligand: [3H] Diprenorphine). Particulars: hek293; Not Active = under 50% inhibition at 10 µM. Type of experiment: cell membranes, HEK293, Membrane.
Chain of Kappa-type opioid receptor (P41145 whole entry): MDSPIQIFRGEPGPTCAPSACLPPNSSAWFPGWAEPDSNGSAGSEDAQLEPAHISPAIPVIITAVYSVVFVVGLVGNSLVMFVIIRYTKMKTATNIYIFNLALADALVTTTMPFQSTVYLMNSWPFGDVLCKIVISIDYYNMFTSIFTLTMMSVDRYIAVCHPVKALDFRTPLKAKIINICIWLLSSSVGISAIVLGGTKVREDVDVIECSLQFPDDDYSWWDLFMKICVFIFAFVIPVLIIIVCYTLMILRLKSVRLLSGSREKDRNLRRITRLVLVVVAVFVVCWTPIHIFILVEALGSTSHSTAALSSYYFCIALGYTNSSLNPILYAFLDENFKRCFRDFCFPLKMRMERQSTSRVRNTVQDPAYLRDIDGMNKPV
Experiment [2] concerns the target Mitogen-activated protein kinase 3 (Homo sapiens, UniProt P27361). The experiment in a line: DRUGMATRIX: Protein Serine/Threonine Kinase, ERK1 enzyme inhibition (substrate: Myelin Basic Protein). Also noted: species or system Escherichia coli. Particulars: Not Active = under 50% inhibition at 10 µM.
Experiment [3] addresses T1, Receptor-type tyrosine-protein phosphatase C (Homo sapiens, UniProt P08575).
T1 sequence (P08575 whole entry): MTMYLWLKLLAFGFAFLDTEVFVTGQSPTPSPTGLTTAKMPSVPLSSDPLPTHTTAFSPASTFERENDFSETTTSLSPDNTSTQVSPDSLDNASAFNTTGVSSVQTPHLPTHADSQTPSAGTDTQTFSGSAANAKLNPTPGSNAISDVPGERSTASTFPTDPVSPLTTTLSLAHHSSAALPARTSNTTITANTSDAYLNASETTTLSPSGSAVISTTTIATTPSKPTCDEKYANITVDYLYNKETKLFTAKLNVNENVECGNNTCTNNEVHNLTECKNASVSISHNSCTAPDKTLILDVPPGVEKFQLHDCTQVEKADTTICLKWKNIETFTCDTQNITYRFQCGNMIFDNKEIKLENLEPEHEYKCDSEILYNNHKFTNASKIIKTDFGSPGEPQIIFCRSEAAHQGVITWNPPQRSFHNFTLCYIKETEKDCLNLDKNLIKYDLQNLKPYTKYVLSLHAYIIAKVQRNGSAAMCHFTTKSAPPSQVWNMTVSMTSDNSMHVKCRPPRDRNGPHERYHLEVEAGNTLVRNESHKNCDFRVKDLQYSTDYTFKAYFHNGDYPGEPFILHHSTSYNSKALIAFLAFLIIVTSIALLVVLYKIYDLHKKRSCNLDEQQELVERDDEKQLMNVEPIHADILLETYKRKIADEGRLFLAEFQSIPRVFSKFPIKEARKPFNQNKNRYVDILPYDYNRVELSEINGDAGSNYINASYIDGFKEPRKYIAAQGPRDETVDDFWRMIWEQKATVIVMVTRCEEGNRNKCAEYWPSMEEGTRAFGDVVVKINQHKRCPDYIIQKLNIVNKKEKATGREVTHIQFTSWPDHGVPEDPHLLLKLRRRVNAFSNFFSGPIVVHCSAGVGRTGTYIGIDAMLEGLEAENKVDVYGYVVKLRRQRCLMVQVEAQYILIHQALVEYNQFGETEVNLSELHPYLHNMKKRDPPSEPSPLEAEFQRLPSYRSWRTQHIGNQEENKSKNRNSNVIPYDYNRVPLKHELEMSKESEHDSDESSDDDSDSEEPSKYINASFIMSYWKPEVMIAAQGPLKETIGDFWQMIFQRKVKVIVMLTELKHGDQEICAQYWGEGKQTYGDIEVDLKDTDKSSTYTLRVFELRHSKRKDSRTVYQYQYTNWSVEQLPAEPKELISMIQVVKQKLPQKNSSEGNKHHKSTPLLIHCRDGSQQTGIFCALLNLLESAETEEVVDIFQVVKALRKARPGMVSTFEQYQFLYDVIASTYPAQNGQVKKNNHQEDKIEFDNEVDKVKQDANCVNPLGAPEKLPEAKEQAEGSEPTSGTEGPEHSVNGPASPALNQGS
Further details: species or system Escherichia coli.

For experiment [4], the target named is T2, Alpha-1A adrenergic receptor (Rattus norvegicus, UniProt P43140).
T2 sequence (P43140 whole entry): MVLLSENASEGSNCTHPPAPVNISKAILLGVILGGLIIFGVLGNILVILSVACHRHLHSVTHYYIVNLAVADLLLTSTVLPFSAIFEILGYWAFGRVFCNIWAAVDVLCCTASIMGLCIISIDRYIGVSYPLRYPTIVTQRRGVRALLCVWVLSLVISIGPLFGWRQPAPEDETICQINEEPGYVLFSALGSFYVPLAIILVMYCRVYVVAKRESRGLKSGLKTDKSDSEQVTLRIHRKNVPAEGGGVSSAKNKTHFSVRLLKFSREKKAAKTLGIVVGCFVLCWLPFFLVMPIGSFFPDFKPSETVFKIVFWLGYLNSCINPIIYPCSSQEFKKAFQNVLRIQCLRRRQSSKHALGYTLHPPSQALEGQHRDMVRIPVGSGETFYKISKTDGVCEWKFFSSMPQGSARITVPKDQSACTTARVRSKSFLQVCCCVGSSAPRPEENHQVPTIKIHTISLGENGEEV
The experiment in a line: DRUGMATRIX: Alpha-1A adrenergic receptor radioligand binding (ligand: prazosin). Type of experiment: cell membranes, Wistar, Submaxillary gland, Membrane. Particulars: Not Active = under 50% inhibition at 10 µM.

Experiment [5] can be described thus: DRUGMATRIX: GABAA, Muscimol, Central radioligand binding (ligand: [3H] Muscimol). Type of experiment: cell membranes, Rattus norvegicus, Wistar, Brain, Membrane. Particulars: Not Active = under 50% inhibition at 10 µM.

A word on the IC50: it is the concentration needed to halve the response being measured. By Ki is commonly meant a measure of affinity in units of concentration, obtained from inhibition or displacement.

Chain of Mitogen-activated protein kinase 3 (P27361 whole entry): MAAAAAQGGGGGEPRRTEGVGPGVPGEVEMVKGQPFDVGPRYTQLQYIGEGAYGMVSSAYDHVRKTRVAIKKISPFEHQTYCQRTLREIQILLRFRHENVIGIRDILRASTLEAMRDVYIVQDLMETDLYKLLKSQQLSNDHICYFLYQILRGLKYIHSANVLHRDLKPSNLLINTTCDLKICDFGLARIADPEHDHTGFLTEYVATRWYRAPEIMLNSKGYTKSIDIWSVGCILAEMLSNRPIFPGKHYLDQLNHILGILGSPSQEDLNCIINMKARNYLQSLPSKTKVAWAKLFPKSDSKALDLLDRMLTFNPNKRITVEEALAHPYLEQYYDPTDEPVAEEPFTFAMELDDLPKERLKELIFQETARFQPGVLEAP
Chain of Cannabinoid receptor 1 (P21554 whole entry): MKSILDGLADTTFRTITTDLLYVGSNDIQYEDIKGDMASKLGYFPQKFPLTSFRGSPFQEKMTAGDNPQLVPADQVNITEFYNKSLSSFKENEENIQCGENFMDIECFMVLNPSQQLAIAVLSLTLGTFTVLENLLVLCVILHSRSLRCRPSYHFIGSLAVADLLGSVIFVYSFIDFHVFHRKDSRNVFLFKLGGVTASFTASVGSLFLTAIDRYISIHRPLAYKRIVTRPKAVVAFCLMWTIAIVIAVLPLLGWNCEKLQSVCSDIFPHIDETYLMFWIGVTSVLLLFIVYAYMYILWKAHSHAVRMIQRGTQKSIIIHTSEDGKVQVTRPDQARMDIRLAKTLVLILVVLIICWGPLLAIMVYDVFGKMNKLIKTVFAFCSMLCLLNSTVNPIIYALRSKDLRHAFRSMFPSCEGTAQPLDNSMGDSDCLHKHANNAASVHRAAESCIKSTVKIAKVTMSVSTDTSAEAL

Regarding `CC(=O)OCC(=O)[C@@]1(O)CC[C@H]2[C@@H]3CCC4=CC(=O)CC[C@]4(C)[C@@]3(F)[C@@H](O)C[C@@]21C` [FLUDROCORTISONE ACETATE], the IC50 entry (at Cannabinoid receptor 1; in experiment [1]; in experiment [2]; in experiment [3]; in experiment [4]; in experiment [5]) was “Not Active” throughout. Also, the Ki result in experiment [5] is reported as “Not Active”.
`CCOC(=O)c1ncn2c1CN(C)C(=O)c1cc(F)ccc1-2` [FLUMAZENIL]: the IC50 result (at Cannabinoid receptor 1; in experiment [1]; in experiment [2]; in experiment [3]; in experiment [4]; in experiment [5]) was “Not Active” throughout. The Ki entry in experiment [5] is reported as “Not Active”.
On to `CC(=O)OCC(=O)[C@@]12OC(C)(C)O[C@@H]1C[C@H]1[C@@H]3C[C@H](F)C4=CC(=O)C=C[C@]4(C)[C@@]3(F)[C@@H](O)C[C@@]12C` [FLUOCINONIDE], for which the IC50 entry (against Cannabinoid receptor 1; in experiment [1]; in experiment [2]; in experiment [3]; in experiment [4]; in experiment [5]) was “Not Active” in each case. Further, the Ki result in experiment [5] was “Not Active”.
With `O=C(O)P(=O)(O)O` [FOSCARNET], the IC50 entry (at Cannabinoid receptor 1; in experiment [1]; in experiment [2]; in experiment [3]; in experiment [4]; in experiment [5]) was “Not Active” throughout. The Ki entry in experiment [5] was “Not Active”.
On to `Cc1ccc(C)c(OCCCC(C)(C)C(=O)O)c1` [GEMFIBROZIL], for which the IC50 entry (at Cannabinoid receptor 1; in experiment [1]; in experiment [2]; in experiment [3]; in experiment [4]; in experiment [5]) was “Not Active” each time. Besides, the Ki entry in experiment [5] is given as “Not Active”.
As to `O=c1c(-c2ccc(O)cc2)coc2cc(O)cc(O)c12` [GENISTEIN], the IC50 result (on Cannabinoid receptor 1; in experiment [1]; in experiment [2]; in experiment [3]; in experiment [4]; in experiment [5]) was “Not Active” each time. Besides, the Ki result in experiment [5] was “Not Active”.
As to `CCC1=C(C)CN(C(=O)NCCc2ccc(S(=O)(=O)NC(=O)N[C@H]3CC[C@H](C)CC3)cc2)C1=O` [GLIMEPIRIDE], the IC50 entry (on Cannabinoid receptor 1; in experiment [1]; in experiment [2]; in experiment [3]; in experiment [4]; in experiment [5]) was “Not Active” throughout. Also, in experiment [5], the Ki result is reported as “Not Active”.
On to `Nc1cc(-c2ccncc2)c[nH]c1=O` [INAMRINONE], for which the half-inhibitory concentration (IC50) entry (on Cannabinoid receptor 1; in experiment [1]; in experiment [2]; in experiment [3]; in experiment [4]; in experiment [5]) was “Not Active” each time. In experiment [5], the Ki entry is recorded as “Not Active”.
In the case of `CCCCC1=NC2(CCCC2)C(=O)N1Cc1ccc(-c2ccccc2-c2nnn[nH]2)cc1` [IRBESARTAN], the IC50 result (against Cannabinoid receptor 1; in experiment [1]; in experiment [2]; in experiment [3]; in experiment [4]; in experiment [5]) was “Not Active” throughout. For the same compound, in experiment [5], the Ki result was “Not Active”.
Consider `CN1CCC(=C2c3ccccc3CC(=O)c3sccc32)CC1` [KETOTIFEN], for which the IC50 entry (at Cannabinoid receptor 1; in experiment [1]; in experiment [2]; in experiment [3]; in experiment [4]; in experiment [5]) was “Not Active” throughout. Besides, the Ki result in experiment [5] is “Not Active”.
As to `N[C@@H](Cn1ccc(=O)c(O)c1)C(=O)O` [L-MIMOSINE], the IC50 result (at Cannabinoid receptor 1; in experiment [1]; in experiment [2]; in experiment [3]; in experiment [4]; in experiment [5]) was “Not Active” throughout. Besides, in experiment [5], the Ki result was “Not Active”.
`C[C@H]1COc2c(N3CCN(C)CC3)c(F)cc3c(=O)c(C(=O)O)cn1c23.C[C@H]1COc2c(N3CCN(C)CC3)c(F)cc3c(=O)c(C(=O)O)cn1c23.O` [LEVOFLOXACIN]: the IC50 entry (against Cannabinoid receptor 1; in experiment [1]; in experiment [2]; in experiment [3]; in experiment [4]; in experiment [5]) was “Not Active” throughout. For the same compound, the inhibitory constant (Ki) result in experiment [5] was “Not Active”.
On to `CCn1cc(C(=O)O)c(=O)c2cc(F)c(N3CCNC(C)C3)c(F)c21` (centres undefined) [LOMEFLOXACIN], for which the half-maximal inhibitory concentration (IC50) result (on Cannabinoid receptor 1; in experiment [1]; in experiment [2]; in experiment [3]; in experiment [4]; in experiment [5]) was “Not Active” in each case. The Ki entry in experiment [5] is “Not Active”.
Take `CN1CCCC(CN2c3ccccc3Sc3ccccc32)C1` (centres undefined) [MEPAZINE]: the IC50 result against Cannabinoid receptor 1 was “Not Active”; in experiment [1], “Not Active”; in experiment [2], “Not Active”; in experiment [3], “Not Active”; in experiment [4] (read-out: IC50), 144 nM; in experiment [5], “Not Active”. The Ki in experiment [4] (read-out: Ki) is 58 nM; in experiment [5] it was “Not Active”.
Consider `Cc1cccc(C)c1NC(=O)C1CCCCN1C` (centres undefined) [MEPIVACAINE], for which the IC50 result (at Cannabinoid receptor 1; in experiment [1]; in experiment [2]; in experiment [3]; in experiment [4]; in experiment [5]) was “Not Active” in each case. For the same compound, the Ki result in experiment [5] is on record as “Not Active”.
As for `CN(C)C(=N)NC(=N)N` [METFORMIN], the IC50 result (at Cannabinoid receptor 1; in experiment [1]; in experiment [2]; in experiment [3]; in experiment [4]; in experiment [5]) was “Not Active” each time. The Ki entry in experiment [5] is recorded as “Not Active”.
On to `CC(C)(C)NCC(O)COc1cccc2c1CC(O)C(O)C2` (centres undefined) [NADOLOL], for which the IC50 entry (against Cannabinoid receptor 1; in experiment [1]; in experiment [2]; in experiment [3]; in experiment [4]; in experiment [5]) was “Not Active” in each case. Further, the Ki result in experiment [5] is recorded as “Not Active”.
Take `C[C@@H]1C/C=C/C=C/C=C/C=C/[C@H](O[C@@H]2O[C@H](C)[C@@H](O)[C@H](N)[C@@H]2O)C[C@@H]2O[C@](O)(C[C@@H](O)C[C@H]3O[C@@H]3/C=C/C(=O)O1)C[C@H](O)[C@H]2C(=O)O` [NATAMYCIN]: the 50% inhibitory concentration (IC50) entry (against Cannabinoid receptor 1; in experiment [1]; in experiment [2]; in experiment [3]; in experiment [4]; in experiment [5]) was “Not Active” each time. Besides, in experiment [5], the Ki result was “Not Active”.
Turning to `NC(=O)c1cccnc1` [NIACINAMIDE], the IC50 entry (against Cannabinoid receptor 1; in experiment [1]; in experiment [2]; in experiment [3]; in experiment [4]; in experiment [5]) was “Not Active” in each case. The Ki result in experiment [5] is recorded as “Not Active”.
